According to publication PMC12040169 (PLOS Biology, 2025):

assay: in vitro; details: human, hela cells, % viability

Row | SMILES | viability at 28.5 h, 10 µM
1 | COc1ccc(-c2ccc3nnc(SCc4cccnc4)n3n2)cc1 [CBK287680] | 108%
2 | OC(Cn1c(Cc2ccccc2)nc2ccccc21)Cn1c2ccccc2c2ccccc21 (centres unmarked) [CBK262570] | 95.2%
3 | COCCn1ccnc1C1CCN(C(=O)COc2cccc(F)c2)CC1 [CBK307362] | 91.3%
4 | Cc1cccnc1C(NC(=O)C1CCN(Cc2ccoc2)CC1)c1ccc(Cl)cc1 (centres unmarked) [CBK148227] | 102%
5 | C=C(C)Cn1c(Cc2ccccc2)nnc1SC(C)C [CBK200083] | 92%
6 | CCN1CCN(C(=O)CN(CCc2ccccc2)S(C)(=O)=O)CC1 [CBK266666] | 91.8%
7 | Nc1cc(Cl)cc2[nH]c(=O)c3cc(Cl)ccc3c12 [CBK017144] | 73.3%
8 | Cc1ccc(S(=O)(=O)NCCN2CCN(S(=O)(=O)c3ccc(C)cc3)CC2)cc1 [CBK265461] | 115%
9 | Cc1nnc(NCCO)c2ccccc12 [CBK261448] | 112%
10 | CC1CN(C(=O)OC(C)(C)C)CCN1c1nc2ccccc2nc1O (centres unmarked) [CBK003877C] | 116%
11 | Fc1ccc(CN(Cc2ccsc2)[C@@H]2COC[C@H]2c2ccc(F)cc2)cc1 [CBK286486] | 92.8%
12 | Cc1cccc(NC(=S)N/N=C/c2sccc2C)c1 [CBK022228] | 104%
13 | CCOc1cc(/C=C/c2nc(O)c([N+](=O)[O-])c(=O)[nH]2)ccc1OCC(N)=O [CBK267337] | 96%
14 | O=C(CSc1nc2ccccc2o1)N1c2ccccc2Sc2ccccc21 [CBK221524] | 97.7%
15 | COc1ccc(C2CNC(=O)N2C(=O)OC(C)(C)C)cc1OC1CCCC1 (centres unmarked) [CBK007281] | 93.8%
16 | COc1ccc(NS(=O)(=O)c2ccc(N3CCCC3=O)cc2)cn1 [CBK270216] | 84.9%
17 | CC(=O)c1[nH]c(C)c(C(=O)N(C)Cc2cc(-c3ccncc3)no2)c1C [CBK306681] | 97%
18 | CCCCCC1=NN(C(=O)OCC)C(O)(C(F)(F)F)C1 (centres unmarked) [CBK027739] | 94.9%
19 | c1cc(CCNc2cc(-c3ccc4c(c3)OCO4)ncn2)ccn1 [CBK037689] | 99.5%
20 | Nc1nc2c(s1)c(O)nc(=O)n2Cc1ccccc1 [CBK291257] | 88.6%
21 | COc1ccc(C(=O)Nc2ccc(S(=O)(=O)Nc3nccs3)cc2)cc1I [CBK263880] | 92.7%
22 | Cc1ccc2nc(N3CCCC(O)C3)c(CN3CCSCC3)cc2c1 (centres unmarked) [CBK307000] | 94.7%

Row | SMILES | viability at 28.5 h, 10 µM
23 | c1ccc(CN2CCN(Cc3ccccc3)C2c2ccco2)cc1 [CBK260888] | 99.6%
24 | CCN(CC)C(=O)CN1C(=O)N2CCCN=C2c2ccccc21 [CBK284398] | 84.4%
25 | Cn1nccc1C(=O)C1CCN(C(=O)c2cc3c(s2)CCC3)CC1 [CBK284427] | 78.6%
26 | COc1ccc(CN(Cc2ccc(OC)cc2)Cc2ccc(S(=O)(=O)N3CCOC3=O)cc2)cc1 [CBK014818] | 110%
27 | N#Cc1ccc(C(=O)NCC2(N3CCOCC3)CCSC2)cc1 (centres unmarked) [CBK305602] | 95.3%
28 | Cc1cc(C)c(C(=O)NC2CCN(c3ncccc3C#N)CC2)c(=O)[nH]1 [CBK306709] | 110%
29 | Cc1ccc(Cl)c(OC(C)C(=O)N2CCCC(C(N)=O)C2)c1 (centres unmarked) [CBK304936] | 99.3%
30 | Oc1c(Br)cc2oc3c(c2c1CNc1ccccc1)CCCC3 [CBK160397] | 103%
31 | C=CCn1c(S)nnc1CCSCc1ccccc1 [CBK268849] | 95.1%
32 | CN(CCOc1ccccc1)c1cc(C2CC(N)C2)nc(N)n1 (centres unmarked) [CBK306849] | 97%
33 | CN(C)/C=N/c1nc(=O)[nH]c2c1ncn2C1CC(O)C(CO)O1 (centres unmarked) [CBK201285] | 118%
34 | CC(C)c1cc(C(=O)N2CCCCCC2c2cnn(C)c2)no1 (centres unmarked) [CBK284971] | 108%
35 | CCC(=O)Nc1ccc(-c2nc3ccccc3[nH]2)cc1 [CBK287561] | 98.7%
36 | O=C(O)c1cc(S(=O)(=O)NCc2ccco2)ccc1Br [CBK306193] | 83.7%
37 | Cc1ccc(S(N)(=O)=O)cc1NC(=O)c1ccc(S(=O)(=O)N(C)C)cc1 [CBK266050] | 103%
38 | FC(F)(F)c1cc(-c2cn3ccnc3c(NCCc3cccnc3)n2)cc(C(F)(F)F)c1 [CBK066146] | 98.1%
39 | Cc1cc(NC(=O)c2nn(-c3ncccn3)c3ccccc23)n(C)n1 [CBK048505] | 92.3%
40 | Nc1nc2ccccc2c(=O)[nH]1 [CBK028707] | 101%
41 | COC(=O)c1cccc2c(C)c(C)[nH]c12 [CBK001563] | 97.4%
42 | O=C(O)c1ccc(N2C(=O)CC(c3ccccc3)CC2=O)cc1 [CBK291169] | 87.3%
43 | CC(SCC(=O)Nc1ccc(F)cc1)c1nc2ccccc2c(=O)[nH]1 (centres unmarked) [CBK269200] | 105%
44 | COc1ccnc(N2CCCN(CCc3ccc(OC)c(OC)c3)CC2)n1 [CBK084002] | 85%

Row | SMILES | viability at 28.5 h, 10 µM
45 | CC(C)c1cc(C(=O)NCC2CCCN(C(C)C)C2)n(C)n1 (centres unmarked) [CBK282566] | 95.8%
46 | O=S(=O)(Nc1nnc(Cc2ccc(Cl)cc2)s1)c1ccc(Cl)cc1 [CBK200048] | 90.2%
47 | CCOC(=O)c1cnc(N2CCOCC2)nc1NCCc1c[nH]c2ccccc12 [CBK093605] | 106%
48 | C[C@@H](Nc1cncc(-c2cccs2)n1)c1ccccc1 [CBK065711] | 108%
49 | c1ccc(Cn2cncc2-c2cncn2CCCN2CCCCC2)cc1 [CBK281490] | 114%
50 | Cc1sc2ncn(CC(=O)Nc3cccnc3)c(=O)c2c1C [CBK306057] | 92.5%
51 | Cc1nn(C)cc1-c1cncn1CC1(N(C)C)CCC(C)CC1 (centres unmarked) [CBK281799] | 88.9%
52 | CC(Oc1cccc2ccccc12)C(=O)NN (centres unmarked) [CBK261209] | 112%
53 | CC(C)(C)C(=O)N[C@H]1CO[C@H]2[C@@H]1OC[C@@H]2Nc1nccc(C2CCCC2)n1 [CBK289530] | 115%
54 | COc1ccc(-c2nn(CC(=O)O)cc2/C=C/c2cc(C(F)(F)F)nc(=O)[nH]2)cc1 [CBK287128] | 86.8%
55 | O=C(c1c(F)cccc1Cl)N1CCN(Cc2ccc3c(c2)OCO3)CC1 [CBK074724] | 93.9%
56 | COCC(=O)N[C@H]1C[C@H]2C(=O)Nc3ccccc3C(=O)N2C1 [CBK289353] | 91.7%
57 | O=C(O)c1sccc1S(=O)(=O)Nc1ccc(Cc2nc3ccccc3s2)cc1 [CBK295286] | 92.8%
58 | CN1CCN(CCOC(=O)NCc2ccnc3ccccc23)CC1 [CBK200148] | 94%
59 | Cn1c2c(c3ccccc31)CCOC21CCN(CC2CCCCO2)CC1 (centres unmarked) [CBK040649] | 87.9%
60 | CC(C)c1ccc(/C=C/C(=O)NCc2ccccc2)cc1 [CBK149635] | 112%
61 | O=C(c1ccco1)N1CCN(c2cc(-c3cccnc3)ncn2)CC1 [CBK037833] | 101%
62 | COc1ccccc1CN1CC[C@H]2[C@@H](C1)[C@H](c1ccsc1)CN2C(=O)c1ccccc1 [CBK285617] | 96%
63 | Fc1ccc(CN2CC3CCCC(C2)C3N2CCOCC2)cc1F (centres unmarked) [CBK282270] | 95.8%
64 | CCCc1cc(C2CCCCCN2C(=O)c2cccnc2)no1 (centres unmarked) [CBK282987] | 99.5%

same assay, conditions: human, hela cells, % viability, bulk resorufin, single well

Row | SMILES | viability at 28.5 h, 10 µM
65 | Cc1cc(C)cc(N2C(=O)/C(=C/c3ccc(OC(C)C(=O)O)cc3)C(=O)NC2=S)c1 (centres unmarked) [CBK264016] | 93.9%
